According to patent US20240101572A1, “DIHYDROOXADIAZINONE COMPOUND AND PHARMACEUTICAL USE THEREOF” (Japan Tobacco Inc., priority 2022, published 2024):
pIC50: −log10 of the molar value. Read-outs that look alike come from different tables or passages of the source.

How the values were obtained:
full-length human PLD1 = full-length human PLD1 (Homo sapiens (Human), UniProt Q13393); experiment: Evaluation of human PLD1 enzyme inhibitory activity (Amplex Red / choline oxidase fluorescence); format: biochemical
Chain of full-length human PLD1 (Q13393 other isoform, or with tags, fused parts or gaps): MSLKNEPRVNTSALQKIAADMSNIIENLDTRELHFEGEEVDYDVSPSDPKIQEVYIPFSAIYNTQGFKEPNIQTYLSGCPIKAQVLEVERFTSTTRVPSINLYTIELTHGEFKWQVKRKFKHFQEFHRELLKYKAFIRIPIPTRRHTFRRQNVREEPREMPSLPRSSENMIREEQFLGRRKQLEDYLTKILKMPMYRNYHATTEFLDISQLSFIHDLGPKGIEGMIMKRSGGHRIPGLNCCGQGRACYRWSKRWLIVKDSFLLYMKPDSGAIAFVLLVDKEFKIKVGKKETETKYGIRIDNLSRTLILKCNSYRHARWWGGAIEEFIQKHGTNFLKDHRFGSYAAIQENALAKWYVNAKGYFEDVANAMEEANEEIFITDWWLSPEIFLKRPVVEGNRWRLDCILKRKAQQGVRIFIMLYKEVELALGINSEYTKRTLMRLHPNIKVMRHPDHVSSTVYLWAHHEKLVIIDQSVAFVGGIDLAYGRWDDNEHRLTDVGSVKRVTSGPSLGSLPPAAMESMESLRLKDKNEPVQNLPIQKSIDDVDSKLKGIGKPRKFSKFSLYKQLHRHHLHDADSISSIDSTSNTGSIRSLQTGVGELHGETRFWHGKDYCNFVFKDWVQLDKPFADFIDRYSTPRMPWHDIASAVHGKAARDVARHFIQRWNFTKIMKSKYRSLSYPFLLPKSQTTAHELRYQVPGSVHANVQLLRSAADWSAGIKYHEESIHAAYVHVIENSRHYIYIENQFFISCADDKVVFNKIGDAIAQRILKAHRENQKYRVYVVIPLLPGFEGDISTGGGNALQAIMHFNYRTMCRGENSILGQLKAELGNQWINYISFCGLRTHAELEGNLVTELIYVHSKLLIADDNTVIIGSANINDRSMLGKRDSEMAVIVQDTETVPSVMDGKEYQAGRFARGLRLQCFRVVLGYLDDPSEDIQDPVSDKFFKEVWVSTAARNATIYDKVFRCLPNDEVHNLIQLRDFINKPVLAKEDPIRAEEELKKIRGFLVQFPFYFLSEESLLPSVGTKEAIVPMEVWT
Method: A method for measuring human PLD1 enzyme inhibitory activity using an enzyme in which a FLAG-tag is added to the N-terminus of full-length human PLD1 (1-1036 amino acids) is shown below.
(§1) DNA fragment in which a FLAG-tag sequence is added to the 5′-end of full-length human PLD1 was amplified by PCR method, using commercially available human PLD1 gene (Promega KK) as a template. The amplified DNA fragment was fused with vector pVL1393 for baculovirus production (Pharmingen) digested with BamHI and EcoRI, using In-Fusion HD Cloning Kit (Takara Bio). The full-length human PLD1-expression plasmid DNA for baculovirus was isolated from Escherichia coli DH5a (TOYOBO) transformed with the obtained In-Fusion reaction product. Next, DNA fragment in which a FLAG-tag sequence is added to the 5′-end of full-length human PLD1 was amplified by PCR method, using the full-length human PLD1-expression plasmid DNA for baculovirus as a template. The amplified DNA fragment was fused with a DNA fragment in which a linker sequence is introduced into pcDNA3.4-TOPO (Life Technologies), using In-Fusion HD Cloning Kit (Takara Bio). The full-length human PLD1-expression plasmid DNA for animal cells was isolated from Escherichia coli DH5a transformed with the obtained In-Fusion reaction product. The base sequence of the full-length human PLD1 cloned into vector was determined by a Dye Terminator method using BigDye Terminator v3.1 Cycle Sequencing Kit (Applied Biosystems). The determined sequence was a sequence in which the FLAG-tag sequence was inserted at the 5′-end of the full-length human PLD1 (GenBank Accession Number: NM_001130081).
(§2) Expi293F cells (Life Technologies) were cultured with shaking using Expi293 Expression Medium (Life Technologies) as a medium at 37° C. in the presence of 8% CO2. The gene introduction reagent PEI was prepared by dissolving Polyethylenimine Max (nominally MW 40,000) (Polysciences) in MilliQ water, adjusting the pH of the solution to 7.0 with NaOH to obtain a 1 mg/mL solution, and then filtering the solution through 0.22 μm filter. The full-length human PLD1-expression plasmid DNA for animal cells was transfected into Expi293F cells using PEI, and after 48 hours of shaking culture, the cells were collected and stored at −80° C.
(§3) To the full-length human PLD1-expressed cells was added a Homogenate buffer (20 mmol/L Na-phosphate pH 7.5, 250 mmol/L NaCl, 1 mmol/L MgCl2, 1% β-OG, 0.05 mmol/L DTT+complete EDTA-free (Roche Diagnostics K.K.)), and the cells were lysed by Microfluidizer Processor M-110EH (Mizuho Kogyo Co., Ltd.). The lysate was centrifuged at 10,100×g at 4° C. for 15 minutes, and the supernatant was collected and filtered through 0.45 μm filter. To the centrifuged supernatant was added ANTI-FLAG M2 Affinity Gel (SIGMA-Aldrich) resin equilibrated with a Homogenate buffer, and the mixed solution was stirred at 4° C. for 1 hr or more. The mixed solution was loaded onto Poly-Prep column, and the resin was washed with a Wash buffer (20 mmol/L Na-phosphate pH 7.5, 150 mmol/L NaCl, 1 mmol/L MgCl2, 0.02% Triton, 0.05 mmol/L DTT). A Wash buffer containing 400 μg/mL DYKDDDDK Peptide (Scrum Inc.) was added to the column to elute the protein bound to the resin. The eluted fractions were subjected to SDS-PAGE followed by CBB staining to identify the fractions containing the full-length human PLD1. The eluted fractions of the full-length human PLD1 were collected and concentrated using Amicon Ultra-15 100k (Merck Millipore). The concentrated fractions were collected, flash-frozen in liquid nitrogen and stored at −80° C.
(§4) A DMSO or test substance solution (the DMSO final concentration: 5%) prepared by diluting DMSO or test substance with an Assay buffer (50 mmol/L HEPES pH 7.5, 80 mmol/L KCl, 3 mmol/L EGTA, 3.6 mmol/L MgCl2, 0.01% NP-40, 0.1% BSA), and the solution was added to a 384 well Assay Plate (Black, Polystyrene, Non-Treated, Cat No. 3573, Corning) by 5 μL/well. […]

full-length human PLD2 = full-length human PLD2 (Homo sapiens (Human), UniProt O14939); experiment: Evaluation of human PLD2 enzyme inhibitory activity (Amplex Red / choline oxidase fluorescence); format: biochemical
Chain of full-length human PLD2 (O14939 whole entry, the tested form may be a part): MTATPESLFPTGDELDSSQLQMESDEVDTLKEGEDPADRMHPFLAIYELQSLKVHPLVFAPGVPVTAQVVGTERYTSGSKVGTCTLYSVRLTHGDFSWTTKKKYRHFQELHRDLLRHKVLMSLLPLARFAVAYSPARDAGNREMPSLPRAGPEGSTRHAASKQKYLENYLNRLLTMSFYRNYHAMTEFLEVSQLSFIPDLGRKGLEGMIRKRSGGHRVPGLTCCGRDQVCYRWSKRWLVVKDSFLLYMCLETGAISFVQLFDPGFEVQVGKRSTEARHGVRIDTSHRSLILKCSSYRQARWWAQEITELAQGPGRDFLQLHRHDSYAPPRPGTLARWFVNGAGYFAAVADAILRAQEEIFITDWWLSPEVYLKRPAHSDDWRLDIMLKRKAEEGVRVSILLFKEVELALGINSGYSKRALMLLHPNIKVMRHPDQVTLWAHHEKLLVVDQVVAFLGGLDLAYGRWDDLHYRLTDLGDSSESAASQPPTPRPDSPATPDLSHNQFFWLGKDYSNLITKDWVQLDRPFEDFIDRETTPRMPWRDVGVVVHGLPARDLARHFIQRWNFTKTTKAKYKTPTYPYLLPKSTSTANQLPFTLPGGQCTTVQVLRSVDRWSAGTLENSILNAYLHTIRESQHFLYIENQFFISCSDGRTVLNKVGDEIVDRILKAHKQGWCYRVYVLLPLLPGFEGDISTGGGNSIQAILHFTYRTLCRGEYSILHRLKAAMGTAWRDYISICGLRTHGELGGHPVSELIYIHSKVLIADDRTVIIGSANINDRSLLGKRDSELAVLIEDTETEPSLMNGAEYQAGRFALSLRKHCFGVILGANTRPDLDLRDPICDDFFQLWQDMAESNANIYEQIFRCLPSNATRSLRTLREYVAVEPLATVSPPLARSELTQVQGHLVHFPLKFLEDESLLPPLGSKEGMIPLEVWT
Method: A method for measuring human PLD2 enzyme inhibitory activity using an enzyme in which a FLAG-tag is added to the N-terminus of full-length human PLD2 (1-933 amino acids) is shown below.
as §1, with “PLD2” for “PLD1”, “PLD2-expression” for “PLD1-expression”, “NM 002663).” for “NM_001130081).”
as §2, with “PLD2-expression” for “PLD1-expression”
as §3, with “PLD2-expressed” for “PLD1-expressed”, “PLD2.” for “PLD1.”, “PLD2” for “PLD1”
as §4

[1] = full-length human PLD1 enzyme, read-out: PLD1 IC50
[2] = full-length human PLD2 enzyme, read-out: PLD2 IC50

SMILES	pIC50 (full-length human PLD1; [1])	pIC50 (full-length human PLD2; [2])	pIC50 (full-length human PLD1; column 1 of continuation tables 2-12 to 2-14, read-out: human PLD1 enzyme inhibitory activity IC50)	pIC50 (full-length human PLD2; column 2 of continuation tables 2-12 to 2-14, read-out: human PLD2 enzyme inhibitory activity IC50)
CNC1(C(=O)N[C@@H](C)C[C@H]2CC[C@]3(CC2)OC(=O)NN=C3c2ccc(F)cc2Br)COC1 [Example 124]	6.20	5.56	–	–
CNC(=O)C(=O)N[C@@H](C)C[C@]1(C#N)CC[C@@]2(CC1)OC(=O)NN=C2c1cc(OC(F)(F)F)ccc1Br [Example 2-080]	> 8.00	> 8.00	–	–
CNC(=O)C(=O)N[C@@H](C)C[C@H]1CC[C@]2(CC1)OC(=O)NN=C2c1ccc(F)cc1I [Example 139]	> 8.00	> 8.00	–	–
C[C@@H](C[C@H]1CC[C@]2(CC1)OC(=O)NN=C2c1cc(C#N)ccc1Br)NC(=O)c1cn(C)cn1 [Example 2-071]	7.89	> 8.00	–	–
[2H]C([2H])([2H])NC(=O)C(=O)N[C@@H](C)C[C@]1(C#N)CC[C@@]2(CC1)OC(=O)NN=C2c1cc(F)c(F)cc1Br [Example 2-140]	–	–	7.77	> 8.00
CNC(=O)C(=O)N[C@@H](C)C[C@H]1CC[C@]2(CC1)OC(=O)NN=C2c1cnc(N2CCC(F)(F)C2)cc1Cl [Example 241]	7.77	> 8.00	–	–
CNC(=O)C(=O)N[C@@H](C)C[C@H]1CC[C@]2(CC1)OC(=O)NN=C2c1cnc(C(F)(F)F)cc1C [Example 174]	7.38	7.77	–	–
C=C(OCC)c1ccc(C2=NNC(=O)O[C@]23CC[C@@H](C[C@H](C)NC(=O)C(=O)NC)CC3)c(C)c1 [Example 163]	> 8.00	> 8.00	–	–
C[C@@H](C[C@H]1CC[C@]2(CC1)OC(=O)NN=C2c1cc(C#N)ccc1Br)NC(=O)C(=O)NC1CC1 [Example 292]	7.64	> 8.00	–	–
COc1cc(C)c(C2=NNC(=O)O[C@]23CC[C@@H](C[C@H](C)NC(=O)CC#N)CC3)cn1 [Example 263]	5.56	5.35	–	–
Cc1cc(F)ccc1C1=NNC(=O)O[C@]12CC[C@@H](C[C@H](C)NC(=O)c1ccc(Cl)cc1F)CC2 [Example 88]	7.25	7.19	–	–
CNC(=O)C(=O)N[C@@H](C)[C@H](C)[C@H]1CC[C@]2(CC1)OC(=O)NN=C2c1cc(C#N)ccc1Br [Example 338]	7.62	> 8.00	–	–
CNC(=O)C(=O)N[C@@H](C)C[C@H]1CC[C@]2(CC1)OC(=O)NN=C2c1cnc(N2C[C@H]3C[C@@H]2CO3)cc1C [Example 267]	7.59	> 8.00	–	–
C[C@@H](CN1CCC2(CC1)OC(=O)NN=C2c1ccc(F)cc1Br)NC(=O)c1cc2cc(F)ccc2[nH]1 [Example 2]	7.70	> 8.00	–	–
CNC(=O)C(=O)N[C@@H](C)C[C@H]1CC[C@]2(CC1)OC(=O)NN=C2c1ccc(F)cc1C [Example 55]	7.82	> 8.00	–	–
CNC(=O)C(=O)N[C@@H](C)CN1CCC2(CC1)OC(=O)NN=C2c1cc(C#N)ccc1Br [Example 300]	7.42	> 8.00	–	–
C[C@@H](C[C@H]1CC[C@]2(CC1)OC(=O)NN=C2c1cc(OC(F)(F)F)ccc1Br)NC(=O)c1cnn(C)c1 [Example 303]	7.96	> 8.00	–	–
[2H]C([2H])([C@H](C)NC(=O)C(=O)NC)N1CCC2(CC1)OC(=O)NN=C2c1ccc(F)cc1Br [Example 333]	7.60	> 8.00	–	–
C[C@@H](C[C@H]1CC[C@]2(CC1)OC(=O)NN=C2c1ccc(F)cc1Br)NC(=O)C1(O)CC1 [Example 36]	6.66	6.86	–	–
Cc1cc(C(=O)N[C@@H](C)CN2CCC3(CC2)OC(=O)NN=C3c2ccc(C#N)cc2Cl)[nH]n1 [Example 169]	7.47	7.70	–	–
Cc1cc(C(=O)N[C@@H](C)CN2CCC3(CC2)OC(=O)NN=C3c2ccc(S(C)(=O)=O)cc2Cl)[nH]n1 [Example 128]	6.73	7.22	–	–
C[C@@H](C[C@H]1CC[C@]2(CC1)OC(=O)NN=C2c1ccc(OC(F)(F)F)cc1Br)NC(=O)c1cc2ccccc2o1 [Example 87]	7.41	> 8.00	–	–
Cc1cc(F)ccc1C1=NNC(=O)O[C@]12CC[C@@H](C[C@H](C)NC(=O)N1CC3CCCCC3C1)CC2 (mixture of isomers) [Example 150]	6.06	6.19	–	–
C[C@@H](C[C@H]1CC[C@]2(CC1)OC(=O)NN=C2c1ccc(F)cc1Br)NC(=O)c1cc(C(F)(F)F)n[nH]1 [Example 72]	7.47	7.62	–	–
COc1cc(C(=O)N[C@@H](C)C[C@H]2CC[C@]3(CC2)OC(=O)NN=C3c2ccc(F)cc2Br)on1 [Example 69]	> 8.00	> 8.00	–	–
CBC(=O)C(=O)N[C@@H](C)C[C@H]1CC[C@]2(CC1)OC(=O)NN=C2c1ccc(S(C)(=O)=O)cc1Cl [Example 51]	7.48	7.80	–	–
